Consider two molecules from US12157741B2, “Macrocyclic inhibitors of DYRK1A” (DANA-FARBER CANCER INSTITUTE, INC., priority 2018, dated 2024).

Molecules are shown by their SMILES.

What all share (assay type): binding
Holding throughout (conditions): compound 1 uM

The target in assay [1] is various enzymes (Homo sapiens, UniProt O00329). How it is done: (§1) Ambit profiling was conducted in accordance with the manufacturer's instructions.
Assay [2] addresses various enzymes (Homo sapiens, UniProt O14578). How it is done:
as §1

For assay [3], the target named is T1, various enzymes (Homo sapiens, UniProt O14757).
T1 sequence (O14757 1-476): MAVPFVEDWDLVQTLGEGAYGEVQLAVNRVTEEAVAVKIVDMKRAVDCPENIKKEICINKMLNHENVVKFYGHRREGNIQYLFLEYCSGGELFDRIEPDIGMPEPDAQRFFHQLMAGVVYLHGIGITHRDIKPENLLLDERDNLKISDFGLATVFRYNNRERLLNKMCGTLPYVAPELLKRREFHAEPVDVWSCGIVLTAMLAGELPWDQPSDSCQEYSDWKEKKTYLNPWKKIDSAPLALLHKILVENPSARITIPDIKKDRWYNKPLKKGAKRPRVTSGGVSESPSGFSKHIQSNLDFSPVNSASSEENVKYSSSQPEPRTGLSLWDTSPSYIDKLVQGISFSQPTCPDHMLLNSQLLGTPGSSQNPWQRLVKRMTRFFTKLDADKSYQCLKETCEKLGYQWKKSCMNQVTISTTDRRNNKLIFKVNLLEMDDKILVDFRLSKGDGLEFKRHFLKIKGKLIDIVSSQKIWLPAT
How it is done:
as §1

For assay [4], the target named is various enzymes (Homo sapiens, UniProt P08922). How it is done: as §1
Assay [5] has as its target various enzymes (Homo sapiens, UniProt P17612). How it is done:
as §1

For assay [6], the target named is various enzymes (Homo sapiens, UniProt P17948). How it is done:
as §1

Assay [7] concerns the target various enzymes (Homo sapiens, UniProt P22694). How it is done: as §1
Assay [8] concerns the target T2, various enzymes (Homo sapiens, UniProt P29323).
T2 sequence (P29323 19-1055): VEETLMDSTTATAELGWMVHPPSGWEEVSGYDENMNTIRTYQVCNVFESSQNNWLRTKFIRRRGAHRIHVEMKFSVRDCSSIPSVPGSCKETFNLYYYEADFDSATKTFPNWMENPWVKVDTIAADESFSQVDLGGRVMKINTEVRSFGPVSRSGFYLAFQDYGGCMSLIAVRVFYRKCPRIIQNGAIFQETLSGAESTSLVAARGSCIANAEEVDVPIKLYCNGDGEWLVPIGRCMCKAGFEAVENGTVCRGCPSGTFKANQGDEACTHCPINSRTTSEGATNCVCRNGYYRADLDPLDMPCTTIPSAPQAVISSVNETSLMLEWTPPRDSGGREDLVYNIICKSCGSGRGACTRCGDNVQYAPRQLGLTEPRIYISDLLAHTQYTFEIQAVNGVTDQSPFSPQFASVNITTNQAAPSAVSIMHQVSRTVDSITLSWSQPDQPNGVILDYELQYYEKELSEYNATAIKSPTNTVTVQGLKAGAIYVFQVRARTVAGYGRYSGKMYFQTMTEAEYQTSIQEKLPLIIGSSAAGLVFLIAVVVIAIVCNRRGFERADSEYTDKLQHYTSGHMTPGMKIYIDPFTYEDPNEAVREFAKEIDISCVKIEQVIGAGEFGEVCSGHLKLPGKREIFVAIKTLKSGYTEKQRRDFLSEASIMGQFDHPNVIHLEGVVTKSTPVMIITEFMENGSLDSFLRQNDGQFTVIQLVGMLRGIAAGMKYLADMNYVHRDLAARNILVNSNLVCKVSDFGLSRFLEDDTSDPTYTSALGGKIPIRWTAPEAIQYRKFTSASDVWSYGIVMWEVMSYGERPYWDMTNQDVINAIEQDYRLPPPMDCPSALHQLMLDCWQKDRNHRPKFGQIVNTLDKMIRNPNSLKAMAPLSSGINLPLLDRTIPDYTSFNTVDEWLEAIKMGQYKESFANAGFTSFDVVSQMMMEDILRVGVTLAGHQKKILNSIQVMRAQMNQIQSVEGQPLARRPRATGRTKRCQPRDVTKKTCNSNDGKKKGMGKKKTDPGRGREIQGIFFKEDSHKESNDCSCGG
How it is done: as §1

In assay [9] the target is various enzymes (Homo sapiens, UniProt P49336). How it is done:
as §1

Assay [10] deals with various enzymes (Homo sapiens, UniProt P53779). How it is done:
as §1

Assay [11] has as its target various enzymes (Homo sapiens, UniProt Q13233). How it is done: as §1
Assay [12] has as its target various enzymes (Homo sapiens, UniProt Q15208). How it is done:
as §1

In assay [13] the target is various enzymes (Homo sapiens, UniProt Q86UX6). How it is done:
as §1

The target of assay [14] is various enzymes (Homo sapiens, UniProt Q8IW41). How it is done: as §1
Assay [15] has as its target various enzymes (Homo sapiens, UniProt Q8IY84). How it is done:
as §1

For assay [16], the target named is various enzymes (Homo sapiens, UniProt Q8NG66). How it is done: as §1
various enzymes (Homo sapiens, UniProt Q8NG66), sequence (Q8NG66 whole entry): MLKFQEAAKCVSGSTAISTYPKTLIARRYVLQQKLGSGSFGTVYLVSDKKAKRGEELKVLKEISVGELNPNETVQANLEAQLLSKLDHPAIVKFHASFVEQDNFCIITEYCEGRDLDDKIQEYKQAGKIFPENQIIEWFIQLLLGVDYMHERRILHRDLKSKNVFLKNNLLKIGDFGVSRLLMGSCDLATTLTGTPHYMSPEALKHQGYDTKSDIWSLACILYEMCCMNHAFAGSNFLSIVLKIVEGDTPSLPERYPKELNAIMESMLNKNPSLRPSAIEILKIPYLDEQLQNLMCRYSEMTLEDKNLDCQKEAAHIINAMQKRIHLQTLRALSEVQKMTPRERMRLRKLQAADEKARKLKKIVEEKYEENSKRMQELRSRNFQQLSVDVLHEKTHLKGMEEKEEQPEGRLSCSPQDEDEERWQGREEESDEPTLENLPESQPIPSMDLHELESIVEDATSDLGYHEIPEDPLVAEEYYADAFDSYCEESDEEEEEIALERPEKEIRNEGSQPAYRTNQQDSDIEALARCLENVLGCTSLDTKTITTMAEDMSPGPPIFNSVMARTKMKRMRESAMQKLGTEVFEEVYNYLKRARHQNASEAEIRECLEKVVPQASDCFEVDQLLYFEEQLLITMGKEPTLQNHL
In assay [17] the target is various enzymes (Homo sapiens, UniProt Q8TBX8). How it is done:
as §1

Assay [18] deals with various enzymes (Homo sapiens, UniProt Q92772). How it is done:
as §1

Assay [19] deals with various enzymes (Homo sapiens, UniProt Q96PN8). How it is done:
as §1

Assay [20] addresses various enzymes (Homo sapiens, UniProt Q99558). How it is done: as §1
In assay [21] the target is various enzymes (Homo sapiens, UniProt Q9NY57). How it is done: as §1
Assay [22] addresses various enzymes (Homo sapiens, UniProt Q9UBF8). How it is done: as §1
Assay [23] has as its target various enzymes (Homo sapiens, UniProt Q9Y2H9). How it is done: as §1
Assay [24] addresses various enzymes (Homo sapiens, UniProt Q9Y463). How it is done: as §1

various enzymes (Homo sapiens, UniProt Q86UX6), sequence (Q86UX6 whole entry): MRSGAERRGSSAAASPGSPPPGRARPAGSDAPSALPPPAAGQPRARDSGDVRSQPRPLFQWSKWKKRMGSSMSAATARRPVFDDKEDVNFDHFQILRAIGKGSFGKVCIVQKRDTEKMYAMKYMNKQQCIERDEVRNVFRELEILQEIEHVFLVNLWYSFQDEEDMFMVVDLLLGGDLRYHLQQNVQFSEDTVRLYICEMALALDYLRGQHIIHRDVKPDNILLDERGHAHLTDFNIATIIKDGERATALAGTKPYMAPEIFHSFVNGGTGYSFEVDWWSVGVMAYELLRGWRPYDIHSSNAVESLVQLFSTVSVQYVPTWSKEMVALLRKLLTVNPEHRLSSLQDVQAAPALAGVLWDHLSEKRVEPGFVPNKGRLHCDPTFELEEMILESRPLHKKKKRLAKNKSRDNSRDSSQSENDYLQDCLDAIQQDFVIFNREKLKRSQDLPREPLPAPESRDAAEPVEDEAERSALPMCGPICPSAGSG
various enzymes (Homo sapiens, UniProt Q13233), sequence (Q13233 whole entry): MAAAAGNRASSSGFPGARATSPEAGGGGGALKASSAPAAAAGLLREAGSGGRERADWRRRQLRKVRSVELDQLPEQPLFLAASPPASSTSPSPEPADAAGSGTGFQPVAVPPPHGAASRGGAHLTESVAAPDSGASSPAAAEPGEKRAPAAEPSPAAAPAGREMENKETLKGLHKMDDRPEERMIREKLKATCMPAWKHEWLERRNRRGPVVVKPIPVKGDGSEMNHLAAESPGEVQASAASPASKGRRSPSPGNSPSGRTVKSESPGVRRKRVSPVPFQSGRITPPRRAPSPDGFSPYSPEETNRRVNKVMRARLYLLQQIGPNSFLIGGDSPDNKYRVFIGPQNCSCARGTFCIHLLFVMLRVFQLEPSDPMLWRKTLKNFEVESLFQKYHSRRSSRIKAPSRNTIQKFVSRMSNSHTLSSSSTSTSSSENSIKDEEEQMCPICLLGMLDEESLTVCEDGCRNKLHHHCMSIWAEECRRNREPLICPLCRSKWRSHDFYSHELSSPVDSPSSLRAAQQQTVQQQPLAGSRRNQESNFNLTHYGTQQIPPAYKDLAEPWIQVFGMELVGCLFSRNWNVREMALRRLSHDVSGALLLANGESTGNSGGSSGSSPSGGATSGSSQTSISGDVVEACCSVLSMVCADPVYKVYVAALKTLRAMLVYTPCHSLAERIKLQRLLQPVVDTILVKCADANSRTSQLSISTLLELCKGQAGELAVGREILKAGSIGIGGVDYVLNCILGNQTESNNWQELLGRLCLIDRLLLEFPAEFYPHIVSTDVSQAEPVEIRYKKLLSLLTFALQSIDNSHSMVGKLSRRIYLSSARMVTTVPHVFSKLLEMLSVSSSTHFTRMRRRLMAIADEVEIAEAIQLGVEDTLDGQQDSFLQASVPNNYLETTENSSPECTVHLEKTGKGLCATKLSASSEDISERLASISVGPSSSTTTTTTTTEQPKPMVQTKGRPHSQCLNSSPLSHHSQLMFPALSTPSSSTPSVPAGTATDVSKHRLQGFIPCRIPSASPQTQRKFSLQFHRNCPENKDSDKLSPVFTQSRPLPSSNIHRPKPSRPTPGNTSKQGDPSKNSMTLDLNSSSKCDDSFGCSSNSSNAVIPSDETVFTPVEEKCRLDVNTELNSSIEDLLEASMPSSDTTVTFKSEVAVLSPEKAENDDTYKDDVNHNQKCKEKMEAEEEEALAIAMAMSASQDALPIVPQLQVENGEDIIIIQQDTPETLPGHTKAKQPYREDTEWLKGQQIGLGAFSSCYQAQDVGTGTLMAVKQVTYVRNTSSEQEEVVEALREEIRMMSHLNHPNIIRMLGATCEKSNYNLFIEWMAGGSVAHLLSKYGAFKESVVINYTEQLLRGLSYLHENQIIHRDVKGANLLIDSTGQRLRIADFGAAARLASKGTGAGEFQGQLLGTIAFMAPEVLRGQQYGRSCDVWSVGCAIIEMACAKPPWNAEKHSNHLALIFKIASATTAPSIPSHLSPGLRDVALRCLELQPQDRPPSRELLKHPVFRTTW
various enzymes (Homo sapiens, UniProt Q8TBX8), sequence (Q8TBX8 whole entry): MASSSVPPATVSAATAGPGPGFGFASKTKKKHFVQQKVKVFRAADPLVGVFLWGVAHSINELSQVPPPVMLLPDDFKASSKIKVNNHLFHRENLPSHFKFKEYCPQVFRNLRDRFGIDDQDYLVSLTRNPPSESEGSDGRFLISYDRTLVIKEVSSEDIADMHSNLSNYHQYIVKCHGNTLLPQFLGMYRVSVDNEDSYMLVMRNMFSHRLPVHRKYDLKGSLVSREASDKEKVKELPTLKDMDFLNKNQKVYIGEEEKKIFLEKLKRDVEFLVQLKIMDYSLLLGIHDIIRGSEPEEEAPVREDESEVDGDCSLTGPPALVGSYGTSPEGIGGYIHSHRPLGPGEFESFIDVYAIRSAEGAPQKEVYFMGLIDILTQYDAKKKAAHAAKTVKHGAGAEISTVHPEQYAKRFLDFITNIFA
various enzymes (Homo sapiens, UniProt O14578), sequence (O14578 whole entry): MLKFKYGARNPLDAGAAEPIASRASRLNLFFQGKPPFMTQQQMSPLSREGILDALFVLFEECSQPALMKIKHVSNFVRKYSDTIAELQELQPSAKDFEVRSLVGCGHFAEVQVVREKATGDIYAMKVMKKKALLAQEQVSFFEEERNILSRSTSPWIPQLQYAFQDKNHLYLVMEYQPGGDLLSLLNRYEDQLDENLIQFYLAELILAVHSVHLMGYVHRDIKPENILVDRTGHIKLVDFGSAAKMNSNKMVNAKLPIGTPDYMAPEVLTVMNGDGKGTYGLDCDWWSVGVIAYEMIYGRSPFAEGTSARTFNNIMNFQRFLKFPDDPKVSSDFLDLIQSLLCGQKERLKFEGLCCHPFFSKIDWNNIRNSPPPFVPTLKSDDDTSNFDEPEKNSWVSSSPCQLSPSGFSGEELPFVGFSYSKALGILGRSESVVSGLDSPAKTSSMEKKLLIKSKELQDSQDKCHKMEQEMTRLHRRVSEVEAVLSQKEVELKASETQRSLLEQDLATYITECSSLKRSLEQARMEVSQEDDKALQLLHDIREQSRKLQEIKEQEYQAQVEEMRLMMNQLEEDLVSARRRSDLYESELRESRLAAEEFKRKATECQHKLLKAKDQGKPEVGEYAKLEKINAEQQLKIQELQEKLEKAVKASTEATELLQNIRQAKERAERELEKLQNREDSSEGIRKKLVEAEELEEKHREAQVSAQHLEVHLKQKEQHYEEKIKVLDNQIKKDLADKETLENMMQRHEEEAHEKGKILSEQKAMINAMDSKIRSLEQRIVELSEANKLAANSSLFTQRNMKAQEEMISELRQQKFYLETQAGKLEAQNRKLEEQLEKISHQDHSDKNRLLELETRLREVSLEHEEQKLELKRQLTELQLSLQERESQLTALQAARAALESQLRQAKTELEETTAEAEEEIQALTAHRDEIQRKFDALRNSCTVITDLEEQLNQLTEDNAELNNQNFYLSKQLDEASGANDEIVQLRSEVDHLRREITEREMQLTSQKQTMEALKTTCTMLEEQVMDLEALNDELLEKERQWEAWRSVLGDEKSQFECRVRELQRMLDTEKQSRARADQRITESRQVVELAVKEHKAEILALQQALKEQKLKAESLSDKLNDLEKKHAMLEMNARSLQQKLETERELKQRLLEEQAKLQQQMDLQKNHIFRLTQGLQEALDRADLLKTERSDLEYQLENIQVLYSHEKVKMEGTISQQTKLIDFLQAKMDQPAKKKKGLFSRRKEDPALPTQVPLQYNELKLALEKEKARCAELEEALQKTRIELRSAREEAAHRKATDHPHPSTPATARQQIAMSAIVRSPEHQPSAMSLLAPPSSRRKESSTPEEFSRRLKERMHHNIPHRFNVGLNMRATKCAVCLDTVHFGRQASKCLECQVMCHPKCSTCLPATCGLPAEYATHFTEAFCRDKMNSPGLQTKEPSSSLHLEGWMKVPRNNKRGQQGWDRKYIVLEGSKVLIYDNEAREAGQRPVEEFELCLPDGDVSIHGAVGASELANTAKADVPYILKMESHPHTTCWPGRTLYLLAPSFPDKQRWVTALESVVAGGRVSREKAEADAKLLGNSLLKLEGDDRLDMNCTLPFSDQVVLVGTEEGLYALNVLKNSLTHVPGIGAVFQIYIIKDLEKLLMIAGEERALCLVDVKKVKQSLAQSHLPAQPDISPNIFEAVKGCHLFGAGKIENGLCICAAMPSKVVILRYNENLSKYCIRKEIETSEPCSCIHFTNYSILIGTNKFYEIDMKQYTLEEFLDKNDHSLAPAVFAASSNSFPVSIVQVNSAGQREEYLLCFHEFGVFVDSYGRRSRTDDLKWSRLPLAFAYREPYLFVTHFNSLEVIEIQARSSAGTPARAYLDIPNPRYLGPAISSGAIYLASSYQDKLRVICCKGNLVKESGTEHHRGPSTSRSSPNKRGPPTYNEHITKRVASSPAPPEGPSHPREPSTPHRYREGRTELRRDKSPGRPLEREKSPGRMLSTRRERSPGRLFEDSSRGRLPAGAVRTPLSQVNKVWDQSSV

In the case of `COc1c2c(nn1C)CN(C(C)C)C(=O)CCCn1cc(c(C(F)(F)F)n1)-c1c[nH]c3ncc-2cc13` [Compound 50, (Z)-5-isopropyl-35-methoxy-31-methyl-13-(trifluoromethyl)-11H,21H,31H-5-aza-2(3,5)-pyrrolo[2,3-b]pyridina-1(4,1),3(4,3)-dipyrazolacyclononaphan-6-one], the “Ambit profiling: PIK3CD” value on various enzymes [1] is 94. For the same molecule, the “Ambit profiling: CIT” value on various enzymes [2] was found to be 31. Besides, the “Ambit profiling: CHEK1” value on various enzymes [3] is recorded as 100. For the same molecule, the “Ambit profiling: ROS1” value on various enzymes [4] is given as 5.1. Further, at various enzymes [5], the “Ambit profiling: PKAC-alpha” value is on record as 72. For the same molecule, the “Ambit profiling: FLT1” value on various enzymes [6] was determined as 5.9. Also, the “Ambit profiling: PKAC-beta” value at various enzymes [7] is 45. Further, the “Ambit profiling: EPHB2” value on various enzymes [8] stood at 55. Moreover, on various enzymes [9], the “Ambit profiling: CDK8” value was 67. At various enzymes [10], the “Ambit profiling: JNK3” value came out at 8.8. Also, the “Ambit profiling: MAP3K1” value on various enzymes [11] was 72. Further, the “Ambit profiling: NDR1” value on various enzymes [12] is listed as 64. In addition, the “Ambit profiling: YANK3” value at various enzymes [13] was 74. Moreover, the “Ambit profiling: MAPKAPK5” value on various enzymes [14] came out at 100. In addition, the “Ambit profiling: NIM1” value on various enzymes [15] was found to be 100. The “Ambit profiling: NEK11” value on various enzymes [16] worked out at 94. Besides, the “Ambit profiling: PIP5K2C” value at various enzymes [17] is recorded as 20. Moreover, the “Ambit profiling: CDKL2” value at various enzymes [18] is given as 20. Besides, at various enzymes [19], the “Ambit profiling: TSSK3” value worked out at 100. Besides, the “Ambit profiling: NIK” value on various enzymes [20] is on record as 86. Moreover, the “Ambit profiling: YANK2” value at various enzymes [21] is recorded as 45. Also, the “Ambit profiling: PIK4CB” value at various enzymes [22] is on record as 31. In addition, the “Ambit profiling: MAST1” value on various enzymes [23] is reported as 40. Moreover, the “Ambit profiling: DYRK1B” value at various enzymes [24] amounted to 5.2.
For `CC(C)N1Cc2nn(C)cc2-c2cnc3[nH]cc(c3c2)-c2cn(nc2C(F)(F)F)CCCC1=O` [Compound 45, (Z)-5-isopropyl-31-methyl-13-(trifluoromethyl)-11H,21H,31H-5-aza-2(3,5)-pyrrolo[2,3-b]pyridina-1(4,1),3(4,3)-dipyrazolacyclononaphan-6-one], on various enzymes [1], the “Ambit profiling: PIK3CD” value was 92. Further, the “Ambit profiling: CIT” value at various enzymes [2] is listed as 17. In addition, the “Ambit profiling: CHEK1” value on various enzymes [3] stood at 100. In addition, the “Ambit profiling: ROS1” value on various enzymes [4] was 11. Moreover, on various enzymes [5], the “Ambit profiling: PKAC-alpha” value is 51. Besides, the “Ambit profiling: FLT1” value on various enzymes [6] is reported as 5.4. For the same molecule, the “Ambit profiling: PKAC-beta” value on various enzymes [7] amounted to 54. The “Ambit profiling: EPHB2” value at various enzymes [8] was 77. For the same molecule, the “Ambit profiling: CDK8” value on various enzymes [9] stood at 100. Besides, the “Ambit profiling: JNK3” value on various enzymes [10] was 29. Further, on various enzymes [11], the “Ambit profiling: MAP3K1” value is 95. Further, the “Ambit profiling: NDR1” value at various enzymes [12] was found to be 59. The “Ambit profiling: YANK3” value on various enzymes [13] was determined as 100. Moreover, on various enzymes [14], the “Ambit profiling: MAPKAPK5” value was 100. In addition, the “Ambit profiling: NIM1” value at various enzymes [15] worked out at 100. Besides, the “Ambit profiling: NEK11” value at various enzymes [16] was 100. Besides, the “Ambit profiling: PIP5K2C” value on various enzymes [17] was determined as 100. Further, on various enzymes [18], the “Ambit profiling: CDKL2” value is 14. For the same molecule, the “Ambit profiling: TSSK3” value on various enzymes [19] is reported as 90. Besides, at various enzymes [20], the “Ambit profiling: NIK” value is given as 94. In addition, the “Ambit profiling: YANK2” value on various enzymes [21] is 100. For the same molecule, on various enzymes [22], the “Ambit profiling: PIK4CB” value is on record as 99. In addition, the “Ambit profiling: MAST1” value at various enzymes [23] turned out to be 22. Besides, the “Ambit profiling: DYRK18” value on various enzymes [24] is 0.55.
